Reference: article PMC11310081, “Deep-learning-enabled antibiotic discovery through molecular de-extinction” (Nature Biomedical Engineering, 2024)
Converted amounts (≈) assume the structure as drawn. Where two headings read alike, the source gives them in different places. Peptide text beside a SMILES is read from it.

Legend:
A. baumannii ATCC 19606 = type: cell-based, Acinetobacter baumannii; settings: ATCC 19606, 20 h
Excerpt: (§1) The following Gram-negative bacteria were used in our study: A. baumannii ATCC 19606, E. coli ATCC 11775, E. coli AIC221 (E. coli MG1655 phnE_2::FRT), E. coli AIC222 (E. coli MG1655 pmrA53 phnE_2::FRT (colistin resistant)), K. pneumoniae ATCC 13883, P. aeruginosa PAO1 and P. aeruginosa PA14. The following Gram-positive bacteria were also used in our study: S. aureus ATCC 12600, S. aureus ATCC BAA-1556 (methicillin-resistant strain), E. faecalis ATCC 700802 (vancomycin-resistant strain) and E. faecium ATCC 700221 (vancomycin-resistant strain). Bacteria were grown from frozen stocks and plated on Luria–Bertani (LB) or Pseudomonas isolation agar plates (P. aeruginosa strains) and incubated overnight at 37 °C. After the incubation period, a single colony was transferred to 5 ml of LB medium, and cultures were incubated overnight (16 h) at 37 °C. The following day, an inoculum was prepared by diluting the overnight cultures 1:100 in 5 ml of the respective media and incubating them at 37 °C until bacteria reached logarithmic phase (OD600 = 0.3–0.5).
(§2) The in vitro antimicrobial activity of the peptides was assessed by using the broth microdilution assay. […] Aqueous solutions of the peptides were added to the plate at concentrations ranging from 1 to 64 μmol l^−1. […] The optical density of the plates was measured at 600 nm using a spectrophotometer. All assays were done as three biological replicates.

HEK293T cells = test system: HEK293T cells
Experimental: HEK293T cells were obtained from the American Type Culture Collection (CRL-3216). The cells were cultured in high-glucose Dulbecco’s modified Eagle’s medium supplemented with 1% penicillin and streptomycin (antibiotics) and 10% fetal bovine serum and grown at 37 °C in a humidified atmosphere containing 5% CO2.
One day before the experiment, an aliquot of 100 μl of the cells at 50,000 cells per ml was seeded into each well of the cell-treated 96-well plates used in the experiment (that is, 5,000 cells per well). […] After the incubation period, we performed the 3-(4,5-dimethylthiazol-2-yl)-2,5-diphenyltetrazolium bromide tetrazolium reduction assay (MTT assay)[53]. The MTT reagent was dissolved at 0.5 mg ml^−1 in medium without phenol red and was used to replace cell culture supernatants containing the peptides (100 μl per well), and the samples were incubated for 4 h at 37 °C in a humidified atmosphere containing 5% CO2 yielding the insoluble formazan salt. The resulting salts were then resuspended in hydrochloric acid (0.04 mol l^−1) in anhydrous isopropanol and quantified by spectrophotometric measurements of absorbance at 570 nm. All assays were done as three biological replicates.
Unless otherwise stated, all assays were performed in three independent biological replicates as indicated in each figure legend and Methods sections. The cytotoxic activities values were estimated using non-linear regression based on the range of concentrations screened and were shown as the values that cause lysis of 50% of the cells in the experiment. Two technical replicates were performed in the cytotoxicity assays within each of the three biological replicates.

[1] = test system: 11 clinically relevant bacterial pathogens; type: cell-based; settings: Supplementary Dataset 2; against the 11 pathogens tested
Excerpt: as §1, §2

Row | Structure (SMILES) | Minimal inhibitory concentration, A. baumannii ATCC19606 (A. baumannii ATCC 19606) [µM] | CC50 (HEK293T cells; 24 h) [µM] | Active or Inactive [1] | TI (therapeutic index) (HEK293T cells; 24 h) | CC50 (HEK293T cells) [µM] | TI (therapeutic index) (HEK293T cells)
1 | CC[C@H](C)[C@H](NC(=O)[C@H](CC(C)C)NC(=O)[C@@H](NC(=O)[C@H](CCCCN)NC(=O)[C@H](Cc1c[nH]c2ccccc12)NC(=O)[C@@H](NC(=O)[C@H](CCCCN)NC(=O)[C@H](CC(=O)O)NC(=O)[C@@H](NC(=O)[C@H](CC(C)C)NC(=O)[C@H](Cc1ccccc1)NC(=O)[C@H](C)NC(=O)CNC(=O)[C@@H](NC(=O)[C@@H](N)CCCCN)C(C)C)C(C)C)C(C)C)[C@@H](C)O)C(=O)O [Anomalopterin-2] (H-KVGAFLVDKVWKTLI-OH; N-terminus and C-terminus assumed) | 32 (≈ 54.9 µg/mL) | > 128 | Active |  |  | 
2 | CC[C@H](C)[C@H](NC(=O)[C@H](CCCCN)NC(=O)[C@H](CC(N)=O)NC(=O)[C@@H](NC(=O)[C@@H](NC(=O)[C@H](Cc1c[nH]c2ccccc12)NC(=O)[C@H](CC(C)C)NC(=O)[C@H](CCC(N)=O)NC(=O)[C@H](CC(C)C)NC(=O)[C@@H](NC(=O)[C@H](C)NC(=O)[C@H](CC(C)C)NC(=O)[C@@H](N)CCCNC(=N)N)[C@@H](C)O)[C@@H](C)O)[C@@H](C)CC)C(=O)N[C@H](C(=O)N[C@@H](CCCCN)C(=O)N[C@@H](CCC(N)=O)C(=O)N[C@@H](CC(C)C)C(=O)N[C@@H](CCSC)C(=O)N[C@H](C(=O)N1CCC[C@H]1C(=O)N[C@@H](CC(C)C)C(=O)N[C@@H](CC(N)=O)C(=O)N[C@@H](CCCCN)C(=O)N1CCC[C@H]1C(=O)NCC(=O)N[C@@H](Cc1c[nH]cn1)C(=O)N[C@@H](CCCCN)C(=O)O)[C@@H](C)CC)[C@@H](C)O [Ararin-2] (H-RLATLQLWTINKITKQLMIPLNKPGHK-OH; N-terminus and C-terminus assumed) | 16 (≈ 50.5 µg/mL) | > 128 | Active |  |  | 
3 | CC[C@H](C)[C@H](NC(=O)[C@H](CC(C)C)NC(=O)[C@H](Cc1c[nH]cn1)NC(=O)[C@@H](NC(=O)[C@H](CC(C)C)NC(=O)[C@H](CC(C)C)NC(=O)[C@H](Cc1c[nH]cn1)NC(=O)CN)[C@@H](C)CC)C(=O)NCC(=O)N[C@@H](CCCCN)C(=O)N[C@@H](C)C(=O)N[C@H](C(=O)N[C@@H](CC(C)C)C(=O)N[C@@H](C)C(=O)N[C@@H](CC(C)C)C(=O)O)[C@@H](C)O [Arctoterin-1] (H-GHLLIHLIGKATLAL-OH; N-terminus and C-terminus assumed) | 64 (≈ 100 µg/mL) | > 128 | Active |  |  | 
4 | CC[C@H](C)[C@H](NC(=O)[C@H](CCCNC(=N)N)NC(=O)[C@H](Cc1c[nH]cn1)NC(=O)[C@H](CCCCN)NC(=O)[C@@H](NC(=O)CNC(=O)[C@H](CCCNC(=N)N)NC(=O)[C@H](C)NC(=O)[C@H](CCCCN)NC(=O)[C@@H](NC(=O)[C@H](C)NC(=O)[C@@H]1CCCN1C(=O)[C@H](CC(C)C)NC(=O)[C@H](CCC(N)=O)NC(=O)[C@H](CO)NC(=O)[C@H](Cc1ccccc1)NC(=O)[C@H](CC(C)C)NC(=O)[C@H](CC(C)C)NC(=O)[C@@H](NC(=O)[C@@H](N)CS)C(C)C)C(C)C)[C@@H](C)O)C(=O)N[C@@H](CCCCN)C(=O)N[C@@H](Cc1c[nH]c2ccccc12)C(=O)N[C@@H](CC(N)=O)C(=O)N[C@@H](CCCNC(=N)N)C(=O)N[C@@H](CCCCN)C(=O)O [Equusin-4] (H-CVLLFSQLPAVKARGTKHRIKWNRK-OH; N-terminus and C-terminus assumed) | 16 (≈ 47.2 µg/mL) | > 128 | Active | > 8 |  | 
5 | CC[C@H](C)[C@H](N)C(=O)N[C@@H](Cc1ccccc1)C(=O)N[C@@H](CC(C)C)C(=O)N[C@@H](Cc1c[nH]cn1)C(=O)N[C@@H](CC(C)C)C(=O)N[C@@H](CCCCN)C(=O)N[C@H](C(=O)N[C@@H](CC(C)C)C(=O)N[C@@H](CCCCN)C(=O)N[C@H](C(=O)N[C@H](C(=O)N[C@@H](Cc1c[nH]cn1)C(=O)N[C@@H](CC(C)C)C(=O)N[C@@H](CC(C)C)C(=O)O)[C@@H](C)CC)[C@@H](C)CC)[C@@H](C)O [Mammuthusin-1] (H-IFLHLKTLKIIHLL-OH; N-terminus and C-terminus assumed) | 8 (≈ 13.6 µg/mL) | > 128 | Active |  |  | 
6 | CC[C@H](C)[C@H](NC(=O)[C@@H]1CCCN1C(=O)[C@H](CC(N)=O)NC(=O)[C@@H]1CCCN1C(=O)[C@@H]1CCCN1C(=O)[C@H](CCCCN)NC(=O)[C@@H](N)CCCCN)C(=O)N[C@@H](CCCCN)C(=O)N1CCC[C@H]1C(=O)N[C@@H](CCCCN)C(=O)N[C@H](C(=O)N1CCC[C@H]1C(=O)N[C@@H](CC(C)C)C(=O)N[C@@H](CO)C(=O)N[C@@H](C)C(=O)N1CCC[C@H]1C(=O)N[C@@H](CCCNC(=N)N)C(=O)N[C@@H](CCCCN)C(=O)N[C@@H](CO)C(=O)N1CCC[C@H]1C(=O)N[C@@H](CC(N)=O)C(=O)N[C@H](C(=O)N[C@H](C(=O)N[C@@H](CCCCN)C(=O)N[C@@H](Cc1ccc(O)cc1)C(=O)N[C@@H](CCCNC(=N)N)C(=O)N[C@@H](CC(C)C)C(=O)N[C@@H](CCCCN)C(=O)N[C@@H](Cc1ccccc1)C(=O)N[C@@H](CCCNC(=N)N)C(=O)O)C(C)C)[C@@H](C)O)C(C)C [Mammuthusin-5] (H-KKPPNPIKPKVPLSAPRKSPNTVKYRLKFR-OH; N-terminus and C-terminus assumed) | 32 (≈ 112 µg/mL) | > 128 | Active | > 4 |  | 
7 | CC[C@H](C)[C@H](NC(=O)[C@H](CC(N)=O)NC(=O)[C@H](CC(C)C)NC(=O)[C@@H](NC(=O)[C@H](Cc1ccccc1)NC(=O)[C@@H]1CCCN1C(=O)[C@@H]1CCCN1C(=O)[C@@H](NC(=O)[C@H](CO)NC(=O)[C@H](CC(C)C)NC(=O)[C@H](CCCCN)NC(=O)[C@H](CCCCN)NC(=O)[C@H](Cc1ccc(O)cc1)NC(=O)[C@@H](NC(=O)[C@@H](N)CCCCN)[C@@H](C)CC)[C@@H](C)O)[C@@H](C)O)C(=O)N[C@@H](CCCNC(=N)N)C(=O)N[C@H](C(=O)N[C@@H](CC(C)C)C(=O)N1CCC[C@H]1C(=O)N[C@@H](CCCCN)C(=O)N[C@H](C(=O)N[C@@H](CCCCN)C(=O)N[C@@H](Cc1ccccc1)C(=O)N1CCC[C@H]1C(=O)N[C@@H](CCCCN)C(=O)O)C(C)C)[C@@H](C)O [Mylodonin-3] (H-KIYKKLSTPPFTLNIRTLPKVKFPK-OH; N-terminus and C-terminus assumed) | 16 (≈ 47.3 µg/mL) | > 128 | Active |  |  | 
8 | CC[C@H](C)[C@H](N)C(=O)N[C@@H](CC(C)C)C(=O)N[C@H](C(=O)N[C@@H](CC(C)C)C(=O)N[C@@H](Cc1ccccc1)C(=O)N[C@H](C(=O)N[C@H](C(=O)N[C@@H](Cc1ccccc1)C(=O)N[C@@H](CCC(N)=O)C(=O)N[C@@H](CC(C)C)C(=O)N[C@@H](CCCCN)C(=O)N[C@H](C(=O)N[C@@H](CO)C(=O)N[C@@H](CCCCN)C(=O)N[C@@H](CC(C)C)C(=O)O)[C@@H](C)CC)[C@@H](C)CC)[C@@H](C)CC)[C@@H](C)O [Paleopropin-2] (H-ILTLFIIFQLKISKL-OH; N-terminus and C-terminus assumed) |  | > 128 | Active | > 8 |  | 
9 | CC[C@H](C)[C@H](NC(=O)[C@@H](N)[C@@H](C)O)C(=O)N[C@@H](CCCCN)C(=O)N[C@@H](CC(C)C)C(=O)N[C@@H](Cc1ccccc1)C(=O)N[C@@H](CC(C)C)C(=O)N[C@@H](CO)C(=O)N[C@@H](Cc1ccccc1)C(=O)N[C@@H](CCCCN)C(=O)N[C@@H](CC(C)C)C(=O)O [Xenothrixin-1] (H-TIKLFLSFKL-OH; N-terminus and C-terminus assumed) | 8 (≈ 9.68 µg/mL) | 70.77 | Active |  | 70.77 | 8.84
